In brackets after ≈: the same amount, converted by molar mass.
Molecular target: Mtb Ag85C (Mycobacterium tuberculosis, UniProt P9WQN9)
Assay: Fluorometric resorufin butyrate assay, apparent IC50 after 15 min incubation
Format: biochemical
Settings: not given

Chain of Mtb Ag85C (P9WQN9 46-340 limits assumed): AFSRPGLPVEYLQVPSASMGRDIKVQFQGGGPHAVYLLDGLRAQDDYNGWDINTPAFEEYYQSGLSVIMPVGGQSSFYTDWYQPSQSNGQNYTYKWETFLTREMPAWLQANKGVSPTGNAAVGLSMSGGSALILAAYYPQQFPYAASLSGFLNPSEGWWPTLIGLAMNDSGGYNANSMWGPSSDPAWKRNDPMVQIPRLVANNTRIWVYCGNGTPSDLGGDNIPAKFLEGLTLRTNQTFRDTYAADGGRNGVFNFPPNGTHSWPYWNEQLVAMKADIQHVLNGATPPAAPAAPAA

Going from `O=C(CCCCC1SC[C@@H]2NC(=O)N[C@H]12)NCCOCCOCCOCCNC(=O)CCC(=O)N1Cc2ccccc2-c2nnn(-c3ccc(-n4[se]c5ccccc5c4=O)cc3)c2-c2ccccc21` (stereo partly drawn) [compound 10, N-(13,16-Dioxo-16-(3-(4-(3-oxobenzo[d][1,2]-selenazol-2(3H)-yl)phenyl)-3,9-dihydro-8H-dibenzo[b,f][1,2,3]-triazolo[4,5-d]azocin-8-yl)-3,6,9-trioxa-12-azahexadecyl)-5-((3aS,6aR)-2-oxohexahydro-1H-thieno[3,4-d]imidazol-4-yl)-pentanamide] to `O=c1c2ccccc2[se]n1-c1ccccc1` [1a, 2-Phenylbenzo[d][1,2]selenazol-3(2H)-one, reference compound], the IC50 rises from 2020 nM to 5120 nM (2.5-fold).

Compared with `O=c1c2ccccc2[se]n1Cc1ccccc1` [1e, 2-Benzylbenzo[d][1,2]selenazol-3(2H)-one], `COc1ccccc1Cn1[se]c2ccccc2c1=O` [1c, 2-(2-Methoxybenzyl)benzo[d][1,2]selenazol-3(2H)-one] is 4.4-fold higher in IC50: 6500 nM for the first, 28600 nM for the second. The first is the more potent here.

Compared with `[N-]=[N+]=Nc1ccc(-n2[se]c3ccccc3c2=O)cc1` [1j, 2-(4-Azidophenyl)benzo[d][1,2]selenazol-3(2H)-one], `O=c1c2ccccc2[se]n1-c1ccc(F)cc1` [1h, 2-(4-Fluorophenyl)benzo[d][1,2]selenazol-3(2H)-one] is 1.5-fold lower in IC50: 1100 nM for the first, 720 nM for the second. The second is the more potent here.

`O=c1c2ccccc2[se]n1C1CCCC1` [1m, 2-Cyclopentylbenzo[d][1,2]selenazol-3(2H)-one] and `O=c1c2ccccc2[se]n1C1CCCCC1` [1n, 2-Cyclohexylbenzo[d][1,2]selenazol-3(2H)-one] are within 1.5-fold of each other in IC50: 4100 nM for the first, 3700 nM for the second.

`O=c1c2ccccc2[se]n1-c1ccccc1F` [1i, 2-(2-Fluorophenyl)benzo[d][1,2]selenazol-3(2H)-one] and `COc1ccc(-n2[se]c3ccccc3c2=O)cc1` [1d, 2-(4-Methoxyphenyl)benzo[d][1,2]selenazol-3(2H)-one] are within 1.5-fold of each other in IC50: 1000 nM for the first, 1200 nM for the second.

Compared with `COc1ccc(Cn2[se]c3ccccc3c2=O)cc1` [1b, 2-(4-Methoxybenzyl)benzo[d][1,2]selenazol-3(2H)-one], `CC(C)(C)n1[se]c2ccccc2c1=O` [1k, 2-(tert-Butyl)benzo[d][1,2]selenazol-3(2H)-one] is 2.8-fold higher in IC50: 540 nM for the first, 1500 nM for the second. The first is the more potent here.

First: [N-]=[N+]=Nc1ccc(NC(=O)c2ccccc2[Se]C#Cc2ccccc2)cc1 [compound 8, N-(4-Azidophenyl)-2-((phenylethynyl)selanyl)-benzamide]
Second: O=c1c2ccccc2[se]n1CC1CCCCC1 [1g, 2-(Cyclohexylmethyl)benzo[d][1,2]selenazol-3(2H)-one]
The IC50 of the first is higher: over 100000 nM for the first, 5300 nM for the second.

Tested on: Mtb H37Rv
Assay: Microplate Alamar blue assay
Format: cell-based, Mycobacterium tuberculosis
Settings: MABA, 2-fold serial dilution, read on day seven

For `O=c1c2ccccc2[se]n1C12CC3CC(CC(C3)C1)C2` [1l, 2-((3R,5S)-Adamantan-1-yl)benzo[d][1,2]-selenazol-3(2H)-one], the MIC was 50 µg/mL (≈ 150 µM).

Reference: PMC6143291 (The Journal of organic chemistry, 2017)
